From patent publication US20070270336A1, “Method for accelerating cutaneous barrier recovery” (Shiseido Company, Ltd., priority 2006, published 2007)
“Also recorded” adds a separate entry of the source.

Assays:
[1] = tested on: mouse epidermis (stratum granulosum lamellar bodies); test: Electron-microscopic study of lamellar body secretion after acetone treatment; type: in vivo; settings: one hour after acetone treatment; electron microscopy; FIG. 4
Excerpt: The full thickness of skin samples for electron microscopy was minced into pieces (<0.5 mm^3) and fixed in modified Karnovsky's fixative overnight. They were then post-fixed in 2% aqueous osmium tetroxide or 0.2% ruthenium tetroxide as described previously (Denda et al. 1998, op. cit.). After fixation, all samples were dehydrated in graded ethanol solutions, and embedded in an Epon-epoxy mixture. Thin sections were stained with lead citrate and uranyl acetate and viewed by electron microscopy.

[2] = tested on: differentiated cultured human keratinocytes (CHK); test: Evaluation of intracellular potassium levels (PBFI-AM fluorescence); type: cell-based; settings: FIG. 3
Experimental: Evaluation of intracellular potassium levels All in vitro cell culture measurements were carried out using second passage human neonatal keratinocytes. We incubated cells in a low calcium medium (0.1 mM calcium, HuMedia-KG2, KURABO, Osaka, Japan) for at least 5 days and used the cells within 10 days. These keratinocytes were incubated until 100% of confluency, incubated 3 more days, and then incubated in a high calcium medium (1.8 mM calcium) for 24 hours to induce differentiation of the keratinocytes. We then added PBF1-AM (Molecular Probes, Eugene, Oreg.), final concentration 10 μM, and then incubated the cells for 4 hours at 37 C. The cultured keratinocytes were then washed in the medium described above. The cover slip was mounted on a fluorescence microscope (IX70, TS Olympus, Tokyo, Japan) equipped with a 75 W xenon-lamp and band-path filters of 340 nm. Measurements were carried out at the room temperature. Imaging data, recorded by a high-sensitive silicon intensifier target camera (C4742, Hamamatsu Photonics, Hamamatsu, Japan) were recorded by a fluorescence analyzing system (AQUACOSMOS/RATIO1, Hamamatsu Photonics, Hamamatsu, Japan).

hairless mice epidermis = test: Epidermal hyperplasia induced by barrier disruption under low humidity; type: in vivo, mouse
Experimental: Animals were kept separately in 7.2 liter cages in which the relative humidity was maintained at less than 10% with dry air as described previously (Denda et al. 1998a). The temperature was the same in all cases (22-25° C.), and fresh air was circulated 100 times per hour. Animals were kept out of the direct stream of air. During the experiments, the animal's behavior was not restricted. The level of NH3 was always below 1 ppm. Animals were first kept in a dry condition for 48 hours and then the skin on both flank sides was treated with acetone-soaked cotton balls, as described previously (Denda et al. 1998a). The procedure was terminated when TEWL reached 2.5-3.5 mg per cm^2 per h. Immediately after the barrier disruption, 100 ul of Diazoxide aqueous solution (100 uM) was applied on one side of the treated area. Water was applied on the other side. Then the animals were again kept in the dry condition for 48 hours. After the experiments, animals were euthanized with diethylether inhalation and skin samples were taken from the treated area. […] On each section, five areas were selected at random; the thickness of the epidermis was measured with an optical micrometer, and the mean value was calculated. […] On each section, five areas were selected at random from one section; the number of immunostained cells per 1 mm of epidermis was counted and the mean value was calculated. […]

hairless mice flank skin = test: Permeability barrier recovery (TEWL) after tape stripping; type: in vivo, mouse; settings: for permeability barrier recovery after tape stripping (percent recovery of TEWL): single topical application after tape stripping, each reagent 1 mM (FIG. 1 legend), 1, 3 and 6 hours, vs water control
Experimental: All experiments were performed on 7-10-week old male hairless mice (HR-1, Hoshino, Japan). All procedures for measuring of skin barrier function, disrupting the barrier and applying the sample were carried out under anesthesia. All experiments were approved by the Animal Research Committee of the Shiseido Research Center in accordance with the National Research Council Guide. 1-EBIO, diazoxide, gilbenclamide, minoxidil, dequalinium were purchased from Tocris (TOCRIS, Bristol, UK). Valinomycin was purchased from Wako (Wako Osaka, Japan).
(§1) Permeability barrier function was evaluated by measurement of transepidermal water loss (TEWL) with an electric water analyzer, as described previously (Denda, M., Sato J., Masuda Y., Kuramoto M., Elias P. M., Feingold K. R. (1998). J Invest Dermatol 111(5): 858-63). For barrier recovery experiments, both sides of flank skin were treated with repeated tape stripping until the TEWL reached 7-10 mg per cm^2 per h. […] The areas were covered with plastic membranes for 15 min (both treated and control sites) and then the membranes were removed. Previous studies have shown that occlusion for a longer period of time delays barrier repair. […] Two points on one side of a flank were measured and 4-8 mice were used to evaluate the effects of each treatment. We always disrupted the barrier between 7:00AM to 8:00AM to avoid variations in repair rate due to the influence of circadian rhythm. TEWL was then measured over the same sites at 1, 3 and 6 hours after barrier disruption. The barrier recovery results are expressed as percent of recovery, because of variations from day to day in the extent of barrier disruption. In each animal, the percentage of recovery was calculated by the following formula: (TEWL immediately after barrier disruption−TEWL at indicated time point)/(TEWL immediately after barrier disruption−baseline TEWL)×100%). All experiments were performed on 7 to 10-week-old male hairless mice (HR-1, Hoshino, Japan). All procedures including measurement of skin barrier function, disruption of the barrier, and application of test samples were carried out under anesthesia.

hairless mouse flanks = test: Permeability barrier recovery (TEWL) after acetone treatment; type: in vivo; settings: topical potassium ionophore; FIG. 2B; n=4
Experimental: as §1, with “[…] Immediately after” for “For”, “disruption 100 μl” for “recovery experiments, both sides”, “an aqueous solution containing 1 μM of reagent or water alone (control) was applied to the” for “flank skin were”, “area.” for “with repeated tape stripping until the TEWL reached 7-10 mg per cm^2 per h.”, “All experiments were performed on 7 to 10-week-old male hairless mice (HR-1, Hoshino, Japan). All procedures including measurement of skin barrier function, disruption of the barrier, and application of test samples were carried out under anesthesia.” left out

CC1=Nc2ccc(Cl)cc2S(=O)(=O)N1 [diazoxide, 7-chloro-3-methyl-2H-1,2,4-benzothiadiazine 1,1-dioxide]
lamellar body (LB) secretion at SG-SC interface [1]: much more secreted material is evident at SG-SC interface; also recorded: accelerated the secretion of LB | change in intracellular potassium (K+) concentration ([2]; 10 μM final concentration): decreased intracellular K^+ concentrations; also recorded: decreased intracellular potassium concentrations | epidermal hyperplasia induced by acetone treatment under low humidity (hairless mice epidermis; topical 100 uM aqueous solution, 48 hours dry condition, vs water, FIG. 5): prevented the epidermal hyperplasia | epidermal proliferation (BrdU positive cells), quantified (hairless mice epidermis; topical 100 uM, FIG. 6, 6 control mice and 5 treated, ANOVA probability 0.0372): Significant reductions of epidermal proliferation | permeability barrier recovery after tape stripping (percent recovery of TEWL) (hairless mice flank skin): significantly accelerated barrier repair; also recorded: accelerated barrier recovery

Cc1cc(N)c2ccccc2[n+]1CCCCCCCCCC[n+]1c(C)cc(N)c2ccccc21 [dequalinium, 1,1-(1,10-Decanedyl)bis(4-amino-2-methylquinolinium)dichloride]
permeability barrier recovery after tape stripping (percent recovery of TEWL) (hairless mice flank skin): significantly delayed barrier recovery

CCn1c(=O)[nH]c2ccccc21 [1-EBIO, 1-Ethyl-2-benzoimidazollnone]
change in intracellular potassium (K+) concentration ([2]; 10 μM final concentration): decreased intracellular K^+ concentrations; also recorded: decreased intracellular potassium concentrations | permeability barrier recovery after tape stripping (percent recovery of TEWL) (hairless mice flank skin): significantly accelerated barrier repair; also recorded: accelerated barrier recovery

CC(C)[C@@H]1NC(=O)[C@H](C)OC(=O)[C@@H](C(C)C)NC(=O)[C@@H](C(C)C)OC(=O)[C@H](C(C)C)NC(=O)[C@H](C)OC(=O)[C@@H](C(C)C)NC(=O)[C@@H](C(C)C)OC(=O)[C@H](C(C)C)NC(=O)[C@H](C)OC(=O)[C@@H](C(C)C)NC(=O)[C@@H](C(C)C)OC1=O [valinomycin]
lamellar body (LB) secretion at SG-SC interface [1]: much more secreted material is evident at SG-SC interface; also recorded: accelerated the secretion of LB | change in intracellular potassium (K+) concentration ([2]; 1 μM final concentration): decreased intracellular K^+ concentrations; also recorded: decreased intracellular potassium concentrations | permeability barrier recovery after acetone treatment (hairless mouse flanks): accelerated barrier recovery | permeability barrier recovery after tape stripping (hairless mice flank skin; topical potassium ionophore, FIG. 2A, n=4): accelerated barrier recovery

COc1ccc(Cl)cc1C(=O)NCCc1ccc(S(=O)(=O)NC(=O)NC2CCCCC2)cc1 [gilbenclamide, 5-chloro-N{2-[4[[[cycohexylamino]carbonyl]amino]sulfonyl]phenyl}-2-metyhoxybenzamide]
permeability barrier recovery after tape stripping (percent recovery of TEWL) (hairless mice flank skin): significantly delayed barrier recovery
